A value given as a limit tells only on which side of the number the result lay.

Turning to `CCOC(=O)c1cc(C)c(Cl)nc1Nc1ccccc1F`, the melting point lay within 122 to 126 °C.

In turn, `C[C@@H]1NC(=O)C[C@]1(C)O` came in with a melting point of 169 to 173 °C.

For `CCCCCCCCCCCCCCOCc1ccc(C(C)=O)o1`, the melting point lay within 61 to 62 °C.

`CCOC(=O)C(=O)c1cn(CCN2CCOCC2)c2ccccc12`: the melting point was in the range of 99 to 100 °C.

For the compound `CCC1=Cc2cc3c(cc2C(c2ccc(N)cc2)=NN1C(C)=O)OCO3`, the melting point was in the range of 136 to 138 °C.

Compound `CCn1cc(OS(C)(=O)=O)c(=O)c2ccccc21` gave a melting point of 141 to 143 °C.

Turning to `NNC(=O)c1ncc2[nH]c3ccccc3c2n1`, the melting point is over 340 °C.

With `O=C(NCc1ccccc1)c1ccnc(NC(=O)c2ccccc2F)c1`, the melting point fell in the range of 175 to 176 °C.

Consider `CCn1c([N+](=O)[O-])cnc1-c1nnc2ccc(N=CN(C)C)nn12`, for which the melting point is 198 to 200 °C.

The compound `CN(C)S(=O)(=O)c1ccc2c(c1)S(=O)(=O)NC(C1CCCCC1)N2` (stereo not given) gave a melting point of 243 to 245 °C.

Consider `CCOC(=O)c1c(N2CCN(C)CC2)c2ccccc2n(C)c1=O`, for which the melting point was in the range of 144 to 148 °C.

Take `COc1ccc(CCC(=O)c2cccnc2Oc2ccc(F)cc2)cc1`: the melting point was 73 to 74 °C.

Compound `O=C(O)c1ccccc1-c1cc(-c2ccccc2)[nH]n1` showed a melting point of 204 to 206 °C.

Consider `COc1cc(OC)cc(C2=NC(CO)Cc3cc(OC)c(OC)cc32)c1` (stereo not given), for which the melting point was 59 to 62 °C.

`C#CC1(OC(=O)c2ccccc2)C(COC(=O)c2ccc(Cl)cc2)OC(OC(=O)c2ccccc2)C1OC(=O)c1ccccc1` (stereo not given): the melting point fell in the range of 66 to 68 °C.

The compound `CCN(CC)C(=O)c1ccc(/C=C(\C)c2ccc3c(c2)C(C)(C)CCC3(C)C)cc1` yielded a melting point of 111 to 112 °C.

`COC(=O)c1cc2c3c(cc(OCc4ccccc4)c2[nH]1)N(C(=O)OC(C)(C)C)C[C@H]3COC(C)=O` returned a melting point of 128 to 130 °C.

Regarding `CC(=O)NCc1cc(C(C)(C)C)c(O)c(C(C)(C)C)c1`, the melting point fell in the range of 80 to 84 °C.

The compound `CCOC(=O)Cc1ccc(-c2nc(COc3ccc(COc4nn(-c5ccccc5)cc4/C=C/c4coc(C(C)C)n4)cc3OC)c(C)o2)cc1` yielded a melting point of 106 to 108 °C.

Turning to `CNC(=O)c1ccc2c(c1)OC(c1ccccc1)(c1ccccc1)O2`, the melting point is 144 to 145 °C.

For `CCOC(=O)COc1ccc2cc(-c3cc4ccccc4o3)ccc2c1Cl`, the melting point is 140 to 142 °C.

The compound `CC(C)C(C)(N)C(N)=S` (stereo not given) showed a melting point of 98 to 100 °C.

On to `N=C(N)NCCCOc1ccc2cc(CC(=O)O)c(=O)n(Cc3ccccc3)c2c1`, for which the melting point is 132 to 134 °C.

Compound `CN1Sc2sccc2C=C1CO` registered a melting point of 128 to 130 °C.

`O=c1[nH]c2ccc(S(=O)CCN3CCC(Cc4ccccc4)CC3)cc2o1` (stereo not given) showed a melting point of 176 to 178 °C.

For `N#Cc1c(OCC(F)(F)F)nc(N)nc1N1CCc2ccccc2CC1`, the melting point fell in the range of 145 to 147 °C.

Regarding `CCCCc1cc2ccccc2c(Oc2ccc(/C=C/C(=O)O)cc2)c1-c1ccccc1`, the melting point was in the range of 160 to 161 °C.

Regarding `Cc1nc(N2CCc3ccccc3CC2)c(C#N)c(=O)n1O`, the melting point lay in the range of 168 to 172 °C.

As to `CC(=O)Nc1cc(=O)cc2n1CCCCC2`, the melting point is over 230 °C.

With `OC(Cn1cncn1)(c1ccc(Oc2ccc(Cl)cc2)cc1Cl)C1CC1` (stereo not given), the melting point was 170 °C.

For `CSC(Nc1cccc(C#N)c1)=C(C#N)S(=O)(=O)c1ccc(Cl)cc1`, the melting point lay in the range of 168 to 170 °C.

On to `FC(F)=C(F)CCCCSc1nnc(-c2ccc(C(F)(F)F)cc2)o1`, for which the melting point came out at 40 °C.

For `O=C(O)COc1c(-c2cc(Cl)cc(Cl)c2)cc(C(=O)NCCCCCCCCc2ccccc2)cc1-c1cc(Cl)cc(Cl)c1`, the melting point lay in the range of 139 to 149 °C.

Compound `COC(=O)c1cc(C(C)(C)C(=O)OC)ccc1N` had a melting point of 58 to 60 °C.

Turning to `Cc1cc2c(c(C)c1C)C(C)(C)CCC2(C)C`, the melting point lay in the range of 79 to 82 °C.

For the compound `Brc1ccc(OCc2ccc3ccccc3c2)cc1`, the melting point was 104 to 106 °C.

Compound `COCCOc1cc(N(C)S(=O)(=O)c2ccccn2)c2[nH]c(C3=NCC(CC(=O)N(C)CCO)S3)cc2c1` (stereo not given) gave a melting point of 94 to 96 °C.

`CC(C)(C)C(NC(=O)COc1ccccc1)Nc1c(Nc2cccnc2Cl)c(=O)c1=O` (stereo not given) showed a melting point of 220 to 221 °C.

As for `CCCCCCC(=O)COS(=O)(=O)c1ccc(OCC)cc1`, the melting point lay in the range of 38 to 39 °C.

Regarding `CSC(=O)N1c2ccccc2C(=O)N(C(C)C)S1(=O)=O`, the melting point was in the range of 125 to 127 °C.

Turning to `CCc1nc(Cc2ccc(NC(=O)/C=C/c3cnn(C)c3-c3ccc(F)cc3)cc2)cs1`, the melting point fell in the range of 178 to 179 °C.

`Cc1cc(C)c(Cc2nc(C)nc(Cl)c2C)c(C)c1` registered a melting point of 82 to 84 °C.

With `C(=Nc1ccccn1)N(c1ccccc1)c1ccccc1`, the melting point is 92 to 94 °C.

As to `CC1(C)CON(CC2=C(Cl)CC(=NCc3ccccc3O)C=C2)C1=O`, the melting point was in the range of 105 to 107 °C.

`O=C1Cc2cc(C(F)(F)F)ccc2N1`: the melting point lay within 188 to 190 °C.

In turn, `Oc1ccccc1-c1noc2ccsc12` showed a melting point of 121 °C.

With `CCNc1nc(SC)ncc1CNc1cc(OC)cc(OC)c1`, the melting point was 100 to 105 °C.

For `C=CCOC(=O)c1c(C)nc2c(cnn2CCC#CC)c1N`, the melting point was in the range of 114 to 115 °C.

As to `Cc1nc(-c2ccc(O)cc2)c(C(C)C)s1`, the melting point was 165 °C.

For the compound `N[C@H]1CC[C@@H](N2CCNC2=O)CC1`, the melting point was in the range of 121 to 123 °C.

With `N#Cc1cc(-c2ccoc2)c2ccc(COc3cc(F)cc(-c4cc(F)cc(F)c4)c3)cc2n1`, the melting point is 189 to 192 °C.

For `CC(=NOC(=O)N(C)SC(Cl)(Cl)Cl)SCCC#N`, the melting point was 136 to 138 °C.

`CCCCCCCCCCC(O)COc1ccc(N2CCS(=O)(=O)CC2)cc1` (stereo not given) gave a melting point of 84 °C.

The compound `Cc1ccc(S(=O)(=O)OCC2Cc3cccc(-c4ccccc4F)c3O2)cc1` (stereo not given) registered a melting point of 99 to 101 °C.

`CCOCc1nc2c(c(C)c(C)n3nnnc23)n1CCNC(=O)N1CCOCC1`: the melting point was in the range of 205 to 207 °C.

`Clc1ccc(-c2nc3n(c2Cl)CCCC3)c(Cl)c1` came in with a melting point of 99 to 101 °C.

On to `O=S(=O)(CCO)c1ccc(S(=O)(=O)CCO)cc1`, for which the melting point lay within 209 to 212 °C.

In turn, `COCCNC(=O)c1cccc(-c2cccc3cc(Cc4cc(F)ccc4F)sc23)c1` returned a melting point of 92 to 94 °C.

Compound `Cc1nc2c(C#N)cnn2c2c1CCN2C(C)(C)C` showed a melting point of 220 to 224 °C.

Regarding `CCOC(=O)c1cc(C)n(-c2cccc(N(C)C)c2)c1-c1ccccc1`, the melting point is 112 to 114 °C.

Compound `COc1cc(C2=CCN(S(=O)(=O)C(C)(C)C(=O)NO)CC2)ccc1-c1ccccc1` returned a melting point of 156 to 158 °C.

`O=C(O)c1ccc(C(F)(F)F)nc1C(F)(F)F` displayed a melting point of 102 to 104 °C.

`Cc1cc2nc(NC(=O)NCCN3CCOCC3)sc2cc1OC(C)c1c(Cl)ccc(F)c1Cl` (stereo not given) displayed a melting point of 270 to 276 °C.

In the case of `O=C(NCc1ccccn1)Nc1cc(NC(=O)c2ccccn2)ccn1`, the melting point was 206 to 207 °C.

With `NC(=O)CC[C@H](Nc1ccc(CC(=O)O)cc1)C(=O)O`, the melting point is 198 to 200 °C.

What is called melting point is the temperature of the solid-liquid transition.

(Values after a melting point compilation (Tetko et al.; mined from patent text by program, amines drawn as free bases though some values may be those of a salt).)
